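1) Cells in 96-well plates. 2) Compound, 48 h, 5 concentrations. 3) Linear interpolation between surrounding doses. 4) Unreached endpoint = highest concentration. The concentration for 50% growth inhibition is given as GI50. TGI marks complete inhibition of growth.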
Experiments:
Experiment in all cases: NCI-60 cell line screen, 48 h
UACC-62 melanoma = system: UACC-62 melanoma
PC-3 prostate = system: PC-3 prostate
SNB-75 CNS = system: SNB-75 CNS
UACC-257 melanoma = system: UACC-257 melanoma
LOX IMVI melanoma = system: LOX IMVI melanoma
RXF 393 renal = system: RXF 393 renal
EKVX NSCLC = system: EKVX NSCLC
SK-OV-3 ovarian = system: SK-OV-3 ovarian
HT29 colon = system: HT29 colon
HOP-92 NSCLC = system: HOP-92 NSCLC
786-0 renal = system: 786-0 renal
NCI/ADR-RES ovarian = system: NCI/ADR-RES ovarian
M14 melanoma = system: M14 melanoma
HOP-62 NSCLC = system: HOP-62 NSCLC
A549 NSCLC = system: A549 NSCLC
SK-MEL-2 melanoma = system: SK-MEL-2 melanoma
HCT-116 colon = system: HCT-116 colon
IGROV1 ovarian = system: IGROV1 ovarian
DU-145 prostate = system: DU-145 prostate
SR leukemia = system: SR leukemia
ACHN renal = system: ACHN renal
MALME-3M melanoma = system: MALME-3M melanoma
SK-MEL-28 melanoma = system: SK-MEL-28 melanoma
NCI-H522 lung = system: NCI-H522 lung
OVCAR-4 ovarian = system: OVCAR-4 ovarian
RPMI-8226 leukemia = system: RPMI-8226 leukemia
TK-10 renal = system: TK-10 renal
HL-60(TB) leukemia = system: HL-60(TB) leukemia

## CCNCCNc1cc(-c2ccc(Cl)cc2)c(C#N)c2nc3ccccc3n12
UACC-62 melanoma
  GI50: 1850 nM
  TGI: 3.65 µM
PC-3 prostate
  GI50: 1860 nM
  TGI: 3.39 µM
SNB-75 CNS
  GI50: 1330 nM
  TGI: 2670 nM
UACC-257 melanoma
  GI50: 2180 nM
  TGI: 3.92 µM
LOX IMVI melanoma
  GI50: 1520 nM
  TGI: 2930 nM
RXF 393 renal
  GI50: 1440 nM
  TGI: 2780 nM
EKVX NSCLC
  GI50: 1600 nM
  TGI: 3.31 µM
SK-OV-3 ovarian
  GI50: 1850 nM
  TGI: 3.47 µM
HT29 colon
  GI50: 1790 nM
  TGI: 3.47 µM
HOP-92 NSCLC
  GI50: 1700 nM
  TGI: 3.2 µM
786-0 renal
  GI50: 1490 nM
  TGI: 2870 nM
NCI/ADR-RES ovarian
  GI50: 1850 nM
  TGI: 3.91 µM
M14 melanoma
  GI50: 1880 nM
  TGI: 3.38 µM
HOP-62 NSCLC
  GI50: 2370 nM
  TGI: 5.4 µM
A549 NSCLC
  GI50: 1920 nM
  TGI: 3.62 µM
SK-MEL-2 melanoma
  GI50: 2060 nM
  TGI: 3.89 µM
HCT-116 colon
  GI50: 1270 nM
  TGI: 2590 nM
IGROV1 ovarian
  GI50: 1680 nM
  TGI: 3.37 µM
DU-145 prostate
  GI50: 1710 nM
  TGI: 3.09 µM
SR leukemia
  GI50: 282 nM
  TGI: 690 nM
ACHN renal
  GI50: 1480 nM
  TGI: 2890 nM
MALME-3M melanoma
  GI50: 1690 nM
  TGI: 3.38 µM
SK-MEL-28 melanoma
  GI50: 1800 nM
  TGI: 3.34 µM
NCI-H522 lung
  GI50: 2000 nM
  TGI: 3.84 µM
OVCAR-4 ovarian
  GI50: 1640 nM
  TGI: 4.09 µM
RPMI-8226 leukemia
  GI50: 2300 nM
  TGI: 4.92 µM
TK-10 renal
  GI50: 2040 nM
  TGI: 3.62 µM
HL-60(TB) leukemia
  GI50: 1650 nM
  TGI: 3.65 µM
